Measurements from ChEMBL document CHEMBL2321833, “Design and optimization of selective protein kinase C θ (PKCθ) inhibitors for the treatment of autoimmune diseases” (J Med Chem, 2013).

What was measured:
[1] = target: Protein kinase C alpha type (Homo sapiens, UniProt P17252); assay: Inhibition of PKC alpha (unknown origin) using RRRRRKGSFKRKA as substrate after 15 mins by spectrophotometry in presence of ATP
[2] = target: T1, Protein kinase C theta type (Homo sapiens, UniProt Q04759); assay: Inhibition of full-length recombinant PKC theta (unknown origin) using ERMRPRKRQGSVRRRV as substrate after 60 mins by scintillation counting analysis in presence of [gamma-33P]ATP
[3] = target: T1, Protein kinase C theta type; assay: Inhibition of PKC-theta in human PBMC cells assessed as inhibition of IL-2 after 24 hrs by bead-based FLISA assay; assay type: cell-based
[4] = target: Protein kinase C delta type (Homo sapiens, UniProt Q05655); assay: Inhibition of PKC delta (unknown origin) using ERMRPRKRQGSVRRRV as substrate after 15 mins by spectrophotometry in presence of ATP
[5] = Oral bioavailability in rat at 10 mg/kg; assay type: ADME, organism-based; conditions: in vivo
[6] = Half life in rat at 3 mg/kg, iv and 10 mg/kg, po; assay type: ADME, organism-based; conditions: in vivo
[7] = Clearance in rat at 3 mg/kg, iv and 10 mg/kg, po; assay type: ADME, organism-based; conditions: in vivo
Blood = assay: Inhibition of PKC theta in human whole blood assessed as IL-2 level after 1 hr by ELISA; assay type: functional, tissue-based
[8] = Cmax in Balb/c mouse at 25 mg/kg, po; assay type: ADME, organism-based; design: dose 25 mg/kg, route oral; conditions: in vivo
[9] = target: T2, Serine/threonine-protein kinase D1 (Homo sapiens, UniProt Q15139); assay: Inhibition of PKC mu (unknown origin)
T2 sequence (Q15139 whole entry): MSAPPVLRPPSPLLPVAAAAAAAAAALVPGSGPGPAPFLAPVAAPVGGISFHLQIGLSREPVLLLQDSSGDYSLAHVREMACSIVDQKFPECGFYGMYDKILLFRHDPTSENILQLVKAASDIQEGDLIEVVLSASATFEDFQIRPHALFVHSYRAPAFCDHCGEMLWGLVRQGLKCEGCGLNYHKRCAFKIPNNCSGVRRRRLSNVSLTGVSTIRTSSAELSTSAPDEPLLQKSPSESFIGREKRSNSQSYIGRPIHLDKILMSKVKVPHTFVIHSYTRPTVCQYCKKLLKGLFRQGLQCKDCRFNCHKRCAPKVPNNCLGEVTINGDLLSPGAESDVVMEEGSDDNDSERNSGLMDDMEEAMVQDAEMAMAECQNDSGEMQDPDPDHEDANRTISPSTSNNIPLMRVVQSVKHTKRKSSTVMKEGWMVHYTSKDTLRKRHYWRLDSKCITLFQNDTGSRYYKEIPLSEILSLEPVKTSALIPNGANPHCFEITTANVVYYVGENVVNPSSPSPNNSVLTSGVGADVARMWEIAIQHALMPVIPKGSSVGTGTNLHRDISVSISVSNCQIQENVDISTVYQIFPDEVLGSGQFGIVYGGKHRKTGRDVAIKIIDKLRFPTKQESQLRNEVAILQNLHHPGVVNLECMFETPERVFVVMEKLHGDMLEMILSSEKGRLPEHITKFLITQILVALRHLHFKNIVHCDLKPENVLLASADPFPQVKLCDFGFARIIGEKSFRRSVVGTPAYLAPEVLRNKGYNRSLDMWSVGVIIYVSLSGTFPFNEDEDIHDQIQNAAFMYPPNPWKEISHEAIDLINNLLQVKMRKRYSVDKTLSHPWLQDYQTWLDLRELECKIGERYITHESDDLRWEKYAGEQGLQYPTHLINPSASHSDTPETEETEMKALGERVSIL

[10] = target: T3, Protein kinase C zeta type (Homo sapiens, UniProt Q05513); assay: Inhibition of PKC zeta (unknown origin)
T3 sequence (Q05513 whole entry): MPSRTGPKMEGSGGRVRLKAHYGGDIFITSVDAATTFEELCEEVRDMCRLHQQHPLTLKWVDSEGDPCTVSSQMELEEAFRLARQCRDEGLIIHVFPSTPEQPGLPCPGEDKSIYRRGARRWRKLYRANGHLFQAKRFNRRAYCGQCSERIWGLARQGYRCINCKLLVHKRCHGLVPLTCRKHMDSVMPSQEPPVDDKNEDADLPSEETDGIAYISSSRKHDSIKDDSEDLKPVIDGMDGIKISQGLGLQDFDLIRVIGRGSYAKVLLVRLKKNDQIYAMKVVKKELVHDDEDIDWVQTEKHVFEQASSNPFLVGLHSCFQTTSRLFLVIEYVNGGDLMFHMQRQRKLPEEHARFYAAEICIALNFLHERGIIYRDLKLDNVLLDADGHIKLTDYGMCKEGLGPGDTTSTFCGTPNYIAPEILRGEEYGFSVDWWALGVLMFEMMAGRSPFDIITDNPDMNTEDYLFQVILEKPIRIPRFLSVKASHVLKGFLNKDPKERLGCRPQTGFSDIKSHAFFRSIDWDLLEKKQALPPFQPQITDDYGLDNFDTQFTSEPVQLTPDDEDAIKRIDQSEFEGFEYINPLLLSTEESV

[11] = target: Protein kinase C eta type (Homo sapiens, UniProt P24723); assay: Inhibition of PKC eta (unknown origin)
[12] = target: T4, Protein kinase C epsilon type (Homo sapiens, UniProt Q02156); assay: Inhibition of PKC epsilon (unknown origin)
T4 sequence (Q02156 whole entry): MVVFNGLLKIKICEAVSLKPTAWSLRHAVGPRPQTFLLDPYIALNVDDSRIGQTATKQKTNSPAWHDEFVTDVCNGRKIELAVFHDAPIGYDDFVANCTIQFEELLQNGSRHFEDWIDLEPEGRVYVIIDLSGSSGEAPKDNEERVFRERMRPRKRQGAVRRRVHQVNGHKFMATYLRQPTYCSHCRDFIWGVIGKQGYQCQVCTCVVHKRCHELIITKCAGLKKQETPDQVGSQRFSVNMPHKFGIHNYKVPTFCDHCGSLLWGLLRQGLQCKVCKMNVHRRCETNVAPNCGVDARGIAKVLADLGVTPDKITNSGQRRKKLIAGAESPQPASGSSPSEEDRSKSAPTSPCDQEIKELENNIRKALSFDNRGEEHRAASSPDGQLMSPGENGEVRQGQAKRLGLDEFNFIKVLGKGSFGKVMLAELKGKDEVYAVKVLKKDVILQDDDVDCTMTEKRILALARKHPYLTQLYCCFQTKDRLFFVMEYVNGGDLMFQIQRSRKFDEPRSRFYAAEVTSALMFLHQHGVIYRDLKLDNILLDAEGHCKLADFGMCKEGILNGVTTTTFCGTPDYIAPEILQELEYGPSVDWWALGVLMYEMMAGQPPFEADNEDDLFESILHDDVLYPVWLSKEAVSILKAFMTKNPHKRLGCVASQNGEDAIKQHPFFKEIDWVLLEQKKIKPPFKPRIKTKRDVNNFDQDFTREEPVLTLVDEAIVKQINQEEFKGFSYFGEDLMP

[13] = target: Protein kinase C gamma type (Homo sapiens, UniProt P05129); assay: Inhibition of PKC gamma (unknown origin)
[14] = target: T5, Protein kinase C beta type (Homo sapiens, UniProt P05771); assay: Inhibition of PKC beta1 (unknown origin)
[15] = target: T5, Protein kinase C beta type; assay: Inhibition of PKC beta2 (unknown origin)
[16] = target: Mitogen-activated protein kinase 3 (Homo sapiens, UniProt P27361); assay: Inhibition of Erk-1 (unknown origin)
[17] = target: T6, Tyrosine-protein kinase ZAP-70 (Homo sapiens, UniProt P43403); assay: Inhibition of Zap70 (unknown origin)
T6 sequence (P43403 whole entry): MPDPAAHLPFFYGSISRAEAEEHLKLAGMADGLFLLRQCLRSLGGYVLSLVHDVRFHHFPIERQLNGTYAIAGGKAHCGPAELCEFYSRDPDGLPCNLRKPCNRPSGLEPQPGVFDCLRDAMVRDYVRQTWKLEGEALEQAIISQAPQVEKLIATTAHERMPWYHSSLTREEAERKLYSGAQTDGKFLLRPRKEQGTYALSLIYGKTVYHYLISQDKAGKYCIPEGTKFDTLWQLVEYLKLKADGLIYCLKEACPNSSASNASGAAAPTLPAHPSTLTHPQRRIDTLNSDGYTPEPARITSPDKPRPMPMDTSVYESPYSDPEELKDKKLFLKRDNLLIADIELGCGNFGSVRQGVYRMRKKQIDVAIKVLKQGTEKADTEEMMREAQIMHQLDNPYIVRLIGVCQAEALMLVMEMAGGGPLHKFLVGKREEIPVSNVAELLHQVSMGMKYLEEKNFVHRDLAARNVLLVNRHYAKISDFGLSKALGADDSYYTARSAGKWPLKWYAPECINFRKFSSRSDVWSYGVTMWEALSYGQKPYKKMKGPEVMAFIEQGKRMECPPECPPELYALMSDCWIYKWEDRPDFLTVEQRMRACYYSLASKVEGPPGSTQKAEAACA

[18] = target: RAF proto-oncogene serine/threonine-protein kinase (Homo sapiens, UniProt P04049); assay: Inhibition of c-Raf (unknown origin)
[19] = target: Tyrosine-protein kinase Lyn (Homo sapiens, UniProt P07948); assay: Inhibition of Lyn (unknown origin)
[20] = target: T7, Tyrosine-protein kinase ITK/TSK (Homo sapiens, UniProt Q08881); assay: Inhibition of Itk (unknown origin)
T7 sequence (Q08881 whole entry): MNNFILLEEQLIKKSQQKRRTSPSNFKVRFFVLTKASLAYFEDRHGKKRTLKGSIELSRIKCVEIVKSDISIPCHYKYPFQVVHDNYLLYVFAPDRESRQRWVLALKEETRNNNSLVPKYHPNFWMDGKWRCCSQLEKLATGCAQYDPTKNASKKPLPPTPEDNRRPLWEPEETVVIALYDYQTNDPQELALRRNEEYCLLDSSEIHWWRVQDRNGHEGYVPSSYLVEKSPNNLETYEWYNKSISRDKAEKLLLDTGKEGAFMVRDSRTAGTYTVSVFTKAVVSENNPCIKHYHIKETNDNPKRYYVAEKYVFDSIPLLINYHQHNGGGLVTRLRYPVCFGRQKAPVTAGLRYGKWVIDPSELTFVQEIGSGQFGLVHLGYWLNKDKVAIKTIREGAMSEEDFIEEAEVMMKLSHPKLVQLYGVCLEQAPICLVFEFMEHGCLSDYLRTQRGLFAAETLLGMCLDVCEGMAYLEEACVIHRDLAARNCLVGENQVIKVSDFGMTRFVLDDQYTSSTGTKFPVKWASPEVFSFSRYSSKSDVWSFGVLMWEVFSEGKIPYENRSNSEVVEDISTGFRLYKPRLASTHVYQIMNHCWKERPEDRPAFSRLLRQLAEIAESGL

[21] = target: Tyrosine-protein kinase Fyn (Homo sapiens, UniProt P06241); assay: Inhibition of Fyn (unknown origin)
[22] = target: Tyrosine-protein kinase Lck (Homo sapiens, UniProt P06239); assay: Inhibition of Lck (unknown origin)
Sequence of Tyrosine-protein kinase Lck (P06239 whole entry): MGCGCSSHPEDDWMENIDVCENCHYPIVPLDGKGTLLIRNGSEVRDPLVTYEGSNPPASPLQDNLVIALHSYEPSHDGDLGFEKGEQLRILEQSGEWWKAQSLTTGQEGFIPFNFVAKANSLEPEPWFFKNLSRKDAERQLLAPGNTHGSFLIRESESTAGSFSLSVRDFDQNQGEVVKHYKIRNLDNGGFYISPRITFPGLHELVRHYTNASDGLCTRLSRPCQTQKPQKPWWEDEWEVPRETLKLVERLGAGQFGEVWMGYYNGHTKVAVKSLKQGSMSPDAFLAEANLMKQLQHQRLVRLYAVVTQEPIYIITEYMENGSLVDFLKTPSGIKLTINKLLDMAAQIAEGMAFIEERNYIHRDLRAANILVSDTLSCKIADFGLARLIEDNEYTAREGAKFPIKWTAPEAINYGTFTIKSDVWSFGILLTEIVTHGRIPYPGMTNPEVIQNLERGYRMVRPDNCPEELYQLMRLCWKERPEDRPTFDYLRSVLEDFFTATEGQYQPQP

Sequence of Protein kinase C delta type (Q05655 whole entry): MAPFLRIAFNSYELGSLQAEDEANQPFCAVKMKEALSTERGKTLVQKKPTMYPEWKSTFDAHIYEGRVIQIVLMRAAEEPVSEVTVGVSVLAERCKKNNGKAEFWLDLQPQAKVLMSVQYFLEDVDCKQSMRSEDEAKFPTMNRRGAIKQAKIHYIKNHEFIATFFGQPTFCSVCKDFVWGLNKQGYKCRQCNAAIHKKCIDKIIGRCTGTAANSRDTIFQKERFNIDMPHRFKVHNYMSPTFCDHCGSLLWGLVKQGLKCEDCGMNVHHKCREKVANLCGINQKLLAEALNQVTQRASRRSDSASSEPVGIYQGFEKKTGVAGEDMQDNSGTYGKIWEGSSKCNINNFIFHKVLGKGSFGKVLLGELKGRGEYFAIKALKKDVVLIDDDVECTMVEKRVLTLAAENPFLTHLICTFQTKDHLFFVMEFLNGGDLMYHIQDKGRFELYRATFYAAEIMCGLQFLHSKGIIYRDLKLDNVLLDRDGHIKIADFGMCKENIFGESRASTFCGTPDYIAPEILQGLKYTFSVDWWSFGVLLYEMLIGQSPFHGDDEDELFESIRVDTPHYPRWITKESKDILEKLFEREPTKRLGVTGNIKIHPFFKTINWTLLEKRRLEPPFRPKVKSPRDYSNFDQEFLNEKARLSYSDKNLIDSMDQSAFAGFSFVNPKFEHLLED
T1 sequence (Q04759 whole entry): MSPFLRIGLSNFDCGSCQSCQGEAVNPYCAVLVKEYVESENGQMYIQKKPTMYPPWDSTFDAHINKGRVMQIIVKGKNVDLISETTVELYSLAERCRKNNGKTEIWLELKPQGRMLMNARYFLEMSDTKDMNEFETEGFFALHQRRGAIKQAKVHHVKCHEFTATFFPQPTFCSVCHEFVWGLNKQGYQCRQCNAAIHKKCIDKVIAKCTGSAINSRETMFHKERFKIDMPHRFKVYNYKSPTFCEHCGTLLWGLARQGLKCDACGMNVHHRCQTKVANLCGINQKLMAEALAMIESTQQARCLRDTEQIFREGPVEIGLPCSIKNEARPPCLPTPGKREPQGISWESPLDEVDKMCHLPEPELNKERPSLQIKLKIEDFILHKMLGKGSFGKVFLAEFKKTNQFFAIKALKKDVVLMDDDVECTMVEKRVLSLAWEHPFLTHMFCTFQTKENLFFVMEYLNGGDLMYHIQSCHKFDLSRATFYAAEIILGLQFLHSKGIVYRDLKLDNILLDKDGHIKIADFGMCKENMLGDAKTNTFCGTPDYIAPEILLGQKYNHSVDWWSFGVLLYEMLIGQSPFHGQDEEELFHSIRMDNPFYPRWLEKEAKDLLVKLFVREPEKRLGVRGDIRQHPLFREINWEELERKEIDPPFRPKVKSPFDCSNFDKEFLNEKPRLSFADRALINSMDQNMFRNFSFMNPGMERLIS
T5 sequence (P05771 whole entry): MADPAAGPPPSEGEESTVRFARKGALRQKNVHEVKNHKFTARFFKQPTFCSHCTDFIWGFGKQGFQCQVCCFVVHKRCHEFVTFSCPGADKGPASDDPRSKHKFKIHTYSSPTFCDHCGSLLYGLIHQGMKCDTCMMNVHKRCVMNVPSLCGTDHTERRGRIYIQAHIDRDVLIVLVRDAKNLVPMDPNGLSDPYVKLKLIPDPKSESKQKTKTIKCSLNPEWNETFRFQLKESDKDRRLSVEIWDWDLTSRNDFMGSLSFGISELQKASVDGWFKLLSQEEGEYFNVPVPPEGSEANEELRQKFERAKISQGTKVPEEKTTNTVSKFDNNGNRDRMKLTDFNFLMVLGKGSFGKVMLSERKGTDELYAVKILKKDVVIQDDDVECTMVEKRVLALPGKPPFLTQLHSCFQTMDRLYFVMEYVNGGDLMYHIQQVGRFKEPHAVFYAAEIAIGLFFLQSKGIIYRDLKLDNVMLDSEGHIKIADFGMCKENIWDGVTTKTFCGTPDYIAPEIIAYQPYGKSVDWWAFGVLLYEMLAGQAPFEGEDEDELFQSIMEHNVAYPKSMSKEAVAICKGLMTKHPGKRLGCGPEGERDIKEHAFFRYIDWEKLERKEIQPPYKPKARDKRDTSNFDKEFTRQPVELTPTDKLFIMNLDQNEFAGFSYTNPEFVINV
Sequence of Tyrosine-protein kinase Lyn (P07948 whole entry): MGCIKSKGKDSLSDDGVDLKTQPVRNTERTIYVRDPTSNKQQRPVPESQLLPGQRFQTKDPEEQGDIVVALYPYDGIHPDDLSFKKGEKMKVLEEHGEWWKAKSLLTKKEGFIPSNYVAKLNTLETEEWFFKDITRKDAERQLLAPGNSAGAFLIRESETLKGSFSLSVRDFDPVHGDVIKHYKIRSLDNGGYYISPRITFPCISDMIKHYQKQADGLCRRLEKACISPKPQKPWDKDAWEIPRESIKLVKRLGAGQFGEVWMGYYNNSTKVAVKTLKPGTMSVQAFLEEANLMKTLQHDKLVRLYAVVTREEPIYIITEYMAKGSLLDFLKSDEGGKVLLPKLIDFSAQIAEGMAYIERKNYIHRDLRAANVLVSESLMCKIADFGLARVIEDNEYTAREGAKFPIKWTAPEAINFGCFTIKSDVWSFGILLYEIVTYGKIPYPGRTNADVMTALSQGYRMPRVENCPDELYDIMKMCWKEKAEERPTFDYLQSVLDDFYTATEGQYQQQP
Sequence of Tyrosine-protein kinase Fyn (P06241 whole entry): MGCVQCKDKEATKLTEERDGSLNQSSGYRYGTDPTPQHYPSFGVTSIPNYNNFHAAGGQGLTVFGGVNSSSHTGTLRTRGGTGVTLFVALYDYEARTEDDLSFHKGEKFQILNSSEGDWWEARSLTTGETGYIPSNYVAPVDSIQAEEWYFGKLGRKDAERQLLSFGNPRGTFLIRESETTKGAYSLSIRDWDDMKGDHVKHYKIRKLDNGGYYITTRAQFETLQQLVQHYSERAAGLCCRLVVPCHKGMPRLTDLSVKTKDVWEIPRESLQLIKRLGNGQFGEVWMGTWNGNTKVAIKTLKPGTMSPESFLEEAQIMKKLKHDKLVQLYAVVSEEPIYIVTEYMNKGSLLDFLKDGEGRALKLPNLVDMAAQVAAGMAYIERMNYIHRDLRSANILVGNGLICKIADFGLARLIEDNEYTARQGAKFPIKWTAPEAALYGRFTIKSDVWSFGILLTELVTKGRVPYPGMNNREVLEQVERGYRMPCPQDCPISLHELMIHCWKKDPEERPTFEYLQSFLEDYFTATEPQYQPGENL
Sequence of Mitogen-activated protein kinase 3 (P27361 whole entry): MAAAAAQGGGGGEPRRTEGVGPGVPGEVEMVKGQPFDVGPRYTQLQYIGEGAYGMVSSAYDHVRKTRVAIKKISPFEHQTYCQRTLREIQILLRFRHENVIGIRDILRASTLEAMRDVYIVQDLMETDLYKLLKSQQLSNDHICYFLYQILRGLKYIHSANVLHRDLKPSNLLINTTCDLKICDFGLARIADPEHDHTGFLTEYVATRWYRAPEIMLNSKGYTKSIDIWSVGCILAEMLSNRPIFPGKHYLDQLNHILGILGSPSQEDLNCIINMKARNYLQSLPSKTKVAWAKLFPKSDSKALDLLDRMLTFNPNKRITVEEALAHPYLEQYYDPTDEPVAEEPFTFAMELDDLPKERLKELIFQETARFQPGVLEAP

Ki [1] [nM]	Ki [2] [nM]	IC50 [3] [nM]	Ki [4] [nM]	SMILES	other results
56	0.1	4	< 10	CC(C)[C@@](C)(O)[C@@H]1CN(c2nc(-c3n[nH]c4ncccc34)c(F)cc2O)CCN1	
> 1250				CC(C)[C@@](C)(O)[C@@H]1CN(c2nc(-c3n[nH]c4ncccc34)c(F)cc2C#N)CCN1	
205	0.1	1	< 10	CC(C)[C@@](C)(O)[C@@H]1CN(c2nc(-c3n[nH]c4ncccc34)c(F)cc2CO)CCN1	
198	0.1	2	18	CC(C)[C@@](C)(O)[C@@H]1CN(c2nc(-c3n[nH]c4ncccc34)c(F)cc2F)CCN1	bioavailability [5]: 30%; half-life [6]: 1.7 h; clearance [7]: 9.5 mL/min/kg; IC50 (Blood): 80 nM
356	0.08	11	16	CC(C)[C@@](C)(O)[C@@H]1CN(c2nc(-c3n[nH]c4ncccc34)c(F)cc2Cl)CCN1	Cmax [8]: 700 ng/mL; Ki [9]: 2420 nM; Ki [10]: > 5000 nM; Ki [11]: 3.5 nM; Ki [12]: 1 nM; Ki [13]: 725 nM; Ki [14]: 15 nM; Ki [15]: 393 nM; Ki [16]: > 1000 nM; Ki [17]: > 1000 nM; Ki [18]: > 1000 nM; Ki [19]: > 1000 nM; Ki [20]: > 1000 nM; Ki [21]: > 1000 nM; Ki [22]: > 1000 nM; bioavailability [5]: 65%; half-life [6]: 4.7 h; clearance [7]: 7 mL/min/kg; IC50 (Blood): 70 nM

The remaining lines, values behind:

SMILES	Ki [1] [nM]	Ki [2] [nM]	IC50 [3] [nM]	Ki [4] [nM]	other results
Nc1ncccc1C(=O)c1cccc(N2CCCNCC2)n1	428				
CC(C)C[C@H]1CN(c2ccc(F)c(-c3n[nH]c4ncccc34)n2)CCN1				358	
CC(C)C[C@H]1CN(c2ccc(F)c(-c3n[nH]c4ncccc34)n2)C[C@@H](C)N1		5		130	
CC(C)C[C@H]1CN(c2ccc(F)c(-c3n[nH]c4ncccc34)n2)C[C@H](C)N1		> 700		> 1250	
